We go through nine compounds from patent US9273067B2, “Pyrazolopyrimidine macrocycles as inhibitors of human immunodeficiency virus replication” (BRISTOL-MYERS SQUIBB COMPANY, priority 2014, dated 2016).

Molecules are shown by their SMILES.

One experiment concerns NL-RLuc virus (recombinant HIV NL4-3 with Renilla Luciferase) in MT-2 cells. The experiment in a line: Inhibition of HIV replication (NL-RLuc virus in MT-2 cells, luciferase readout). The class given is cell-based, human immunodeficiency virus (HIV). The conditions noted are these: MT2, 120 h, NL-RLuc virus infecting MT-2 cells, 5 days of incubation, 10% FBS, luciferase quantitation; at least 2 experiments. The source says:
Inhibition of HIV Replication:
A recombinant NL-RLuc proviral clone was constructed in which a section of the nef gene from NL4-3 was replaced with the Renilla Luciferase gene. This virus is fully infectious and can undergo multiple cycles of replication in cell culture. In addition, the luciferous reporter provides a simple and easy method for quantitating the extent of virus growth and consequently, the antiviral activity of test compounds. The plasmid pNLRLuc contains the proviral NL-Rluc DNA cloned into pUC 18 at the PvuII site. The NL-RLuc virus was prepared by transfection of 293T cells with the plasmid pNLRLuc. Transfections were performed using the LipofectAMINE PLUS kit from Invitrogen (Carlsbad, Calif.) according to the manufacturer and the virus generated was titered in MT-2 cells. For susceptibility analyses, the titrated virus was used to infect MT-2 cells in the presence of compound, and after 5 days of incubation, cells were processed and quantitated for virus growth by the amount of expressed luciferase. Assay media was RPMI 1640 supplemented with 10% heat inactivated fetal bovine serum (FBS), 100 units/ml penicillin G/100 units/ml streptomycin, 10 mM HEPES buffer pH 7.55 and 2 mM L-glutamine. The results from at least 2 experiments were used to calculate the EC50 values. Luciferase was quantitated using the Dual Luciferase kit from Promega (Madison, Wis.). Susceptibility of viruses to compounds was determined by incubation in the presence of serial dilutions of the compound. The 50% effective concentration (EC50) was calculated by using the exponential form of the median effect equation where (Fa)=1/[1+(ED50/drug conc.)^m] (Johnson V A, Byington R T. Infectivity Assay. In Techniques in HIV Research. ed. Aldovini A, Walker B D. 71-76. New York: Stockton Press. 1990).
On to `Cc1nc2cc3nn2c(c1[C@H](OC(C)(C)C)C(=O)O)N1CCC(C)(CC1)OCCCC[C@H](C)Oc1ccc(F)c(F)c1CCC3` [Example 42, (2S)-2-(tert-Butoxy)-2-[(20S)-14,15-difluoro-4,20,26-trimethyl-19,25-dioxa-1,5,7,8-tetraazapentacyclo[24.2.2.1^6,^9.0^2,^7.0^13,^18]hentriaconta-2,4,6(31),8,13(18),14,16-heptaen-3-yl]acetic acid], for which the 50% effective concentration (EC50) came to 2 nM. In the case of `Cc1ccc2c(c1)O[C@@H](C)CCCCOC1(C)CCN(CC1)c1c([C@H](OC(C)(C)C)C(=O)O)c(C)nc3cc(nn13)CO[C@H]2C` (single isomer, unassigned) [Example 55], the EC50 came out at 7 nM. As for `Cc1ccc2c(c1)COCc1cc3nc(C)c([C@H](OC(C)(C)C)C(=O)O)c(n3n1)N1CCC(C)(CC1)OCCCC[C@H](C)O2` [Example 30, (2S)-2-(tert-Butoxy)-2-[(20S)-4,15,20,26-tetramethyl-11,19,25-trioxa-1,5,7,8-tetraazapentacyclo[24.2.2.1^6,^9.0^2,^7.0^13,^18]hentriaconta-2,4,6(31),8,13,15,17-heptaen-3-yl]acetic], the EC50 turned out to be 64 nM. As to `Cc1nc2cc3nn2c(c1[C@H](OC(C)(C)C)C(=O)O)N1CCC(C)(CC1)OCCCCOC(C(C)C)c1cn(nn1)C3` (stereo partly drawn) [Example 10, (2S)-2-(tert-Butoxy)-2-[4,22-dimethyl-15-(propan-2-yl)-16,21-dioxa-1,5,7,8,11,12,13-heptaazapentacyclo[20.2.2.1^6,^9.1^11,^14.0^2,^7]octacosa-2,4,6(28),8,12,14(27)-hexaen-3-yl]acetic acid], the EC50 stood at 251 nM. With `Cc1nc2cc3nn2c(c1[C@H](OC(C)(C)C)C(=O)O)N1CCC(C)(CC1)OCCCC[C@H](C)Oc1cc(F)c(F)cc1CCC3` [Example 43, (2S)-2-(tert-Butoxy)-2-[(20S)-15,16-difluoro-4,20,26-trimethyl-19,25-dioxa-1,5,7,8-tetraazapentacyclo[24.2.2.1^6,^9.0^2,^7.0^13,^18]hentriaconta-2,4,6(31),8,13(18),14,16-heptaen-3-yl]acetic acid], the EC50 came to 1 nM. Same read-out and setting: next, `Cc1nc2cc3nn2c(c1[C@H](OC(C)(C)C)C(=O)O)N1CCC(C)(CC1)OCCCC[C@H](C)Oc1c(ccc2ccccc12)COC3` [Example 61, (2S)-2-(tert-butoxy)-2-[(24S)-4,24,30-trimethyl-11,23,29-trioxa-1,5,7,8-tetraazahexacyclo[28.2.2.1^6,^9.0^2,^7.0^13,^22.0^16,^21]pentatriaconta-2,4,6(35),8,13(22),14,16(21),17,19-nonaen-3-yl]acetic acid]: 5 nM. Regarding `Cc1nc2cc3nn2c(c1[C@H](OC(C)(C)C)C(=O)O)N1CCC(C)(CC1)OCCCC[C@H](C)Oc1ccc(F)cc1COC3` [Example 28, (2S)-2-(tert-Butoxy)-2-[(20S)-15-fluoro-4,20,26-trimethyl-11,19,25-trioxa-1,5,7,8-tetraazapentacyclo[24.2.2.1^6,^9.0^2,^7.0^13,^18]hentriaconta-2,4,6(31),8,13,15,17-heptaen-3-yl]acetic acid], the EC50 was determined as 5 nM.

Staying with this experiment, now noted: NL-RLuc virus infecting MT-2 cells, 5 days of incubation, 10% FBS, luciferase quantitation; at least 2 experiments; read-out: EC50.
For the compound `Cc1nc2cc3nn2c(c1[C@H](OC(C)(C)C)C(=O)O)N1CCC(C)(CC1)OCCC=COC(C)(C)c1cn(nn1)C3` [Example 4, (2S)-2-(tert-Butoxy)-2-[4,15,15,22-tetramethyl-16,21-dioxa-1,5,7,8,11,12,13-heptaazapentacyclo[20.2.2.1^6,^9.1^11,^14.0^2,^7]octacosa-2,4,6(28),8,12,14(27),17-heptaen-3-yl]acetic acid], the EC50 came to 249 nM.

Staying with this experiment, now noted: {}.
`Cc1nc2cc3nn2c(c1[C@H](OC(C)(C)C)C(=O)O)N1CCC(C)(CC1)OCCCCOC(CC(C)C)c1cn(nn1)C3` (stereo partly drawn) [Example 13, (2S)-2-(tert-Butoxy)-2-[4,22-dimethyl-15-(2-methylpropyl)-16,21-dioxa-1,5,7,8,11,12,13-heptaazapentacyclo[20.2.2.1^6,^9.1^11,^14.0^2,^7]octacosa-2,4,6(28),8,12,14(27)-hexaen-3-yl]acetic acid]: the EC50 worked out at 124 nM.

In general, EC50 refers to the concentration at which the effect is half-maximal.
